Results on 49 compounds are retold here after patent US7473694B2, “Pyrazolopyrimidine derivatives or pharmaceutically acceptable salts thereof” (Teijin Pharma Limited, priority 2005, dated 2009).

This assay deals with recombinant human MAPKAP-K2 (Homo sapiens, UniProt P49137). Description: Inhibition of MAPKAP-K2 enzyme activity (33P-ATP peptide substrate phosphorylation). The conditions noted are these: recombinant human MAPKAP-K2 10 mU, room temperature 30 min, peptide substrate Lys-Lys-Leu-Asn-Arg-Thr-Leu-Ser-Val-Ala; read-out: Activity strength (IC50 against MAPKAP-K2). The format is biochemical. As to the method: General Measurement Method for Determining Inhibition of MAPKAP-K2 Enzyme Activity
recombinant human MAPKAP-K2, sequence (P49137 whole entry): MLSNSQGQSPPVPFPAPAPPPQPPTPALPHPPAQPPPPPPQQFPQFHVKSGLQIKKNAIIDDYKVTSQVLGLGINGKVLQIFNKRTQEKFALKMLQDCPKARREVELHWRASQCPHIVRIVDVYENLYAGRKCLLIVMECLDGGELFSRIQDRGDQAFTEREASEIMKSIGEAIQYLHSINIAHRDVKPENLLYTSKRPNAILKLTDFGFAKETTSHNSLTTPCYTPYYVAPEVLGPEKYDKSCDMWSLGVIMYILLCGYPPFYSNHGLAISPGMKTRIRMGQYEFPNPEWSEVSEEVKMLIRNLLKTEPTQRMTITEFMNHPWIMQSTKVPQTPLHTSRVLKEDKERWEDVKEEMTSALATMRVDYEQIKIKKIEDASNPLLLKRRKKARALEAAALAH
(Preparation of Solutions of Compounds)
Each compound was dissolved to DMSO to prepare a solution with a concentration of 20 mmol/L and this solution was stored at −20° C. This stock solution was diluted with DMSO successively to prepare solutions with 200-fold concentrations of a necessary range. These solutions were further diluted with water at a ratio of 1:20 to prepare solutions with 10-fold concentrations of a necessary range. Each of these solutions (5 μL) was used for each reaction in 50 μL-scale. Through the dilution series of all compounds, the final DMSO concentration was kept at 0.5%. Conventional tests for the compounds were carried out at a final concentration ranging from 100 μmol/L to 0.03 μmol/L, but in some cases, tests were carried out at lower concentrations, depending on activity.
(Measurements of MAPKAP-K2 Enzyme Activity)
To a DMSO solution (5 μL) containing a test compound at 5%, a solution (25 μL) containing a peptide substrate [peptide substrate […], ATP 20 μmol/L, Tris buffer 60 mmol/L (pH 7.5), EGTA 0.2 mmol/L, β-mercaptoethanol 0.2%, magnesium acetate 20 mmol/L, [γ-33P]ATP 0.1 μCi (specific radioactivity ca. 110 TBq/mmol)] was added. The reaction was initiated by further adding a solution (20 μL) containing MAPKAP-K2 enzyme [recombinant human MAPKAP-K2 10 mU, Tris buffer 50 mmol/L (pH 7.5), EGTA 0.1 mmol/L, β-mercaptoethanol 0.1%, BSA 0.1%]. After the reaction was carried out at room temperature for 30 min, 200 mmol/L phosphoric acid (50 μL) was added to quench the reaction, and 90 μL of the reaction mixture was adsorbed on a multiscreen PH plate (Millipore). The plate was washed with 100 mmol/L phosphoric acid. After the plate was dried, 30 μL of MicroScint™-O (Perkin-Elmer) was added here, and the radioactivity (cpm) was measured on a scintillation counter to determine the inhibitory activity. The peptide substrate was Lys-Lys-Leu-Asn-Arg-Thr-Leu-Ser-Val-Ala.
(Note) % Reference=(X−B)/(Tot−B)×100 % Inhibition=100%−% Reference • X=count per minute of the well with a test compound • B=count per minute of the well without the enzyme • Tot=count per minute of the well with only DMSO solvent and without a test compound (Calculation of MAPKAP-K2 Inhibitory Activity) • IC50 value=a concentration of compound at which 50% inhibition is observed • The efficacy of each compound in Tables A to G against MAPKAP-K2 is listed in the following Table J.
One may read the IC50 as the point on the concentration scale where inhibition reaches its midpoint. As for `CCOc1ccc(Nc2c3c(nc4ccnn24)N([C@H]2CC[C@H](N)CC2)CC3)cc1` [A-002], the IC50 is less than 10 µM. The result for `CCOc1ccc(Nc2c3c(nc4ccnn24)N(C2CCCC(N)C2)CC3)cc1` (stereo not shown) [A-003] reads 10 to 50 µM; that for `CCOc1ccc(Nc2c3c(nc4ccnn24)N([C@H]2CCCC[C@@H]2N)CC3)cc1` [A-004], 50 to 100 µM; that for `CCOc1ccc(Nc2c3c(nc4ccnn24)N(CCN)CC3)cc1` [A-005], less than 10 µM.

With `CCOc1ccc(Nc2c3c(nc4ccnn24)N(CCCN)CC3)cc1` [A-006], the IC50 was less than 10 µM. Then `CCOc1ccc(Nc2c3c(nc4ccnn24)N(CC(C)(C)CN)CC3)cc1` [A-007], with 50 to 100 µM. For the compound `CCOc1ccc(Nc2c3c(nc4ccnn24)N([C@H]2CCCNC2)CC3)cc1` [A-008, (S)-(4-ethoxyphenyl)(5-piperidin-3-yl-6,7-dihydro-5H-1,4,5,8a-tetraaza-s-indacen-8-yl)amine], the IC50 is less than 10 µM. In the case of `CCOc1ccc(Nc2c3c(nc4ccnn24)N(C2CCNCC2)CC3)cc1` [A-009], the IC50 was less than 10 µM. `CCOc1ccc(Nc2c3c(nc4ccnn24)N(C2CCN(Cc4ccccc4)C2)CC3)cc1` (stereo not shown) [A-010]: the IC50 was 10 to 50 µM. Turning to `CCOc1ccc(Nc2c3c(nc4ccnn24)N(C2CCN(CC)C2)CC3)cc1` (stereo not shown) [A-012], the IC50 is 10 to 50 µM. Take `CCOc1ccc(Nc2c3c(nc4ccnn24)N(C2CCNC2)CC3)cc1` (stereo not shown) [A-013]: the IC50 is less than 10 µM. The result for `CCOc1ccc(Nc2c3c(nc4ccnn24)N(CC2CCCNC2)CC3)cc1` (stereo not shown) [A-014] reads 50 to 100 µM; that for `CCOc1ccc(Nc2c3c(nc4c(F)cnn24)N([C@H]2CCCNC2)CC3)cc1` [A-018, (S)-(4-Ethoxyphenyl)(3-fluoro-5-piperidin-3-yl-6,7-dihydro-5H-1,4,5,8a-tetraaza-s-indacen-8-yl)amine], less than 10 µM; that for `CCOc1ccc(Nc2c3c(nc4c(F)c(F)nn24)N([C@H]2CCCNC2)CC3)cc1` [A-019, (S)-(2,3-Difluoro-5-piperidin-3-yl-6,7-dihydro-5H-1,4,5,8a-tetraaza-s-indacen-8-yl)(4-ethoxyphenyl)amine], 10 to 50 µM. As for `CCOc1ccc(Nc2c3c(nc4ccnn24)N(O)CC3)cc1` [A-020, 8-(4-ethoxyphenylamino)-6,7-dihydro-1,4,5,8a-tetraaza-s-indacen-5-ol], the IC50 was less than 10 µM. The result for `Cc1nc2ccc(Nc3c4c(nc5ccnn35)N([C@H]3CCCNC3)CC4)cc2s1` [A-022, (S)-(2-methylbenzothiazol-6-yl)(5-piperidin-3-yl-6,7-dihydro-5H-1,4,5,8a-tetraaza-s-indacen-8-yl)amine] reads less than 10 µM. Consider `COCCOc1ccc(Nc2c3c(nc4ccnn24)N([C@H]2CCCNC2)CC3)cc1` [A-023, (S)-[4-(2-methoxyethoxy)phenyl](5-piperidin-3-yl-6,7-dihydro-5H-1,4,5,8a-tetraaza-s-indacen-8-yl)amine], for which the IC50 is less than 10 µM. The result for `CCOc1ccc(Nc2c3c(nc4ccnn24)N([C@H]2CCCNC2)C(CO)C3)cc1` (stereo partly drawn) [A-024, (S)-{8-(4-ethoxyphenylamino)-5-piperidin-3-yl-6,7-dihydro-5H-1,4,5,8a-tetraaza-s-indacen-6-yl]methanol] reads less than 10 µM; that for `c1ccc(CNc2c3c(nc4ccnn24)N([C@H]2CCCNC2)CC3)cc1` [A-025], less than 10 µM. Then `CC(C)(C)CNc1c2c(nc3ccnn13)N([C@H]1CCCNC1)CC2` [A-026], with less than 10 µM.

As to `c1cc2nc3c(c(NC4CCCC4)n2n1)CCN3[C@H]1CCCNC1` [A-027], the IC50 is less than 10 µM.

`c1ccc(Nc2c3c(nc4ccnn24)N([C@H]2CCCNC2)CC3)cc1` [A-032]: the IC50 was less than 10 µM. Turning to `c1cc2nc3c(c(Nc4ccc5cn[nH]c5c4)n2n1)CCN3[C@H]1CCCNC1` [A-058], the IC50 is less than 10 µM. Then `FC(F)(F)c1nc2cc(Nc3c4c(nc5ccnn35)N([C@H]3CCCNC3)CC4)ccc2[nH]1` [A-091], with less than 10 µM; and `Nc1c2c(nc3ccnn13)N([C@H]1CCCNC1)CC2` [A-092, (S)-5-piperidin-3-yl-6,7-dihydro-5H-1,4,5,8a-tetraaza-s-indacen-8-ylamine], with less than 10 µM; and `c1coc(Nc2c3c(nc4ccnn24)N([C@H]2CCCNC2)CC3)c1` [A-095, (S)-furan-2-yl-(5-piperidin-3-yl-6,7-dihydro-5H-1,4,5,8a-tetraaza-s-indacen-8-yl)amine], with less than 10 µM. Then `CNc1c2c(nc3ccnn13)N([C@H]1CCCNC1)CC2` [A-096], with less than 10 µM. The result for `COC(=O)c1ccc(Nc2c3c(nc4ccnn24)N(C2CCCNC2)CC3)cc1` (stereo not shown) [A-099] reads less than 10 µM; that for `c1cc2nc3c(c(Nc4ccc5sccc5c4)n2n1)CCN3[C@H]1CCCNC1` [A-100], less than 10 µM; that for `CCOc1ccc(Nc2c3c(nc4ccnn24)N([C@H]2CCCNC2)CCC3)cc1` [B-001], less than 10 µM.

In the case of `CCOc1ccc(Nc2c3c(nc4ccnn24)N([C@H]2CC[C@H](N)CC2)CCC3)cc1` [B-002, [5-(4-aminocyclohexyl)-5,6,7,8-tetrahydro-1,4,5,9a-tetraazacyclopenta[b]naphthalen-9-yl](4-ethoxyphenyl)amine], the IC50 was less than 10 µM. Regarding `CCOc1ccc(Nc2c3c(nc4ccnn24)N([C@@H]2CCCC[C@@H]2N)CCC3)cc1` [B-003], the IC50 lay within 10 to 50 µM. As to `CCOc1ccc(Nc2c3c(nc4ccnn24)N(CCN(C)C)CCC3)cc1` [B-007], the IC50 was 50 to 100 µM. The result for `CCOc1ccc(Nc2c3c(nc4ccnn24)N(C2CCCC(N)C2)CCC3)cc1` (stereo not shown) [B-013] reads 50 to 100 µM; that for `CCOc1ccc(Nc2c3c(nc4ccnn24)N(C2CCCNC2)CCC3)cc1` (stereo not shown) [B-014], less than 10 µM; that for `CCOc1ccc(Nc2c3c(nc4ccnn24)N(CCCN)CCC3)cc1` [B-015], 10 to 50 µM. Regarding `CCOc1ccc(Nc2c3c(nc4ccnn24)N(C2CCN(Cc4ccccc4)C2)CCC3)cc1` (stereo not shown) [B-016], the IC50 was 10 to 50 µM. The result for `CCOc1ccc(Nc2c3c(nc4ccnn24)N(C2CCNCC2)CCC3)cc1` [B-017] reads less than 10 µM; that for `CCOc1ccc(Nc2c3c(nc4ccnn24)N(Cc2cccnc2)CCC3)cc1` [B-018], 50 to 100 µM; that for `CCOc1ccc(Nc2c3c(nc4ccnn24)N(C2CCNC2)CCC3)cc1` (stereo not shown) [B-021], less than 10 µM. `CCOc1ccc(Nc2c3c(nc4ccnn24)N(C2CCN(CC)C2)CCC3)cc1` (stereo not shown) [B-022]: the IC50 is 10 to 50 µM. With `CCOc1ccc(Nc2c3c(nc4ccnn24)N([C@H]2CCCNC2)CCCC3)cc1` [C-001, (S)-(4-ethoxyphenyl)(5-piperidin-3-yl-6,7,8,9-tetrahydro-5H-1,4,5,10a-tetraazacyclohepta[f]inden-10-yl)amine], the IC50 is less than 10 µM.

Turning to `CCOc1ccc(Nc2c3c(nc4ccnn24)N([C@H]2CCCNC2)C(=O)C3)cc1` [D-001], the IC50 lay in the range of 10 to 50 µM. Consider `CCOc1ccc(Nc2c3c(nc4ccnn24)N(C[C@H]2CCCNC2)C(=O)C3)cc1` [D-002], for which the IC50 lay in the range of 50 to 100 µM. In the case of `CCOc1ccc(Nc2c3c(nc4ccnn24)N(CCN)C(=O)C3)cc1` [D-003], the IC50 was in the range of 50 to 100 µM. The result for `CCOc1ccc(Nc2c3c(nc4ccnn24)N([C@H]2CC[C@H](N)CC2)C(=O)C3)cc1` [D-006] reads 10 to 50 µM; that for `CCOc1ccc(Nc2c3ccn([C@H]4CCCNC4)c3nc3ccnn23)cc1` [F-001, (S)-(4-ethoxyphenyl)(5-piperidin-3-yl-5H-14,5,8a-tetraaza-s-indacen-8-yl)amine], less than 10 µM; that for `CCOc1ccc(Nc2c3cc(CO)n([C@H]4CCCNC4)c3nc3ccnn23)cc1` [F-002], 10 to 50 µM. The result for `CCOc1ccc(Nc2c3c(nc4ccnn24)N([C@H]2CCCNC2)CC=CC3)cc1` [G-001, (S)-(4-ethoxyphenyl)(5-piperidin-3-yl-6,9-dihydro-5H-1,4,5,10a-tetraazacyclohepta[f]inden-10-yl)amine] reads less than 10 µM.
